Assay results from ChEMBL document CHEMBL1240514, “Design and synthesis of potent "sulfur-free" transition state analogue inhibitors of 5'-methylthioadenosine nucleosidase and 5'-methylthioadenosine phosphorylase” (J Med Chem, 2010).
Activity calls are given as the source filed them. The calls are words filed in the database; no cut-off is given here.

Each compound was assayed against T1, S-methyl-5'-thioadenosine phosphorylase (Homo sapiens) (UniProt Q13126) (assay: Inhibition of His-tagged human MTAP at 2.5 uM).
T1 sequence (whole entry): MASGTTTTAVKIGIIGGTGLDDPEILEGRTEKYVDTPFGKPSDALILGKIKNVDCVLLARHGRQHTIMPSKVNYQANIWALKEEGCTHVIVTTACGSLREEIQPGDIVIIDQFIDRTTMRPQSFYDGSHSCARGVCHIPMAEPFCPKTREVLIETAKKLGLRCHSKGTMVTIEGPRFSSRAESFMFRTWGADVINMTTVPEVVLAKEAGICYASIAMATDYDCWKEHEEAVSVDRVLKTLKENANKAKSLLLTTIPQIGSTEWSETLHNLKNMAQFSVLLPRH
For `Nc1ncnc2c(CN3C[C@H](c4cn(Cc5ccccc5)nn4)[C@@H](O)C3)c[nH]c12` (racemic), the inhibition was “inactive”.

These compounds were tested against T2, S-methyl-5'-thioadenosine phosphorylase (Homo sapiens, UniProt Q13126) (assay: Inhibition of His-tagged human MTAP).
T2 sequence (Q13126 whole entry): T1 sequence (whole entry)
`Nc1ncnc2c(CN3C[C@H](CC4CCCCC4)[C@@H](O)C3)c[nH]c12` (racemic) showed a Ki of 14 nM. Work on `Nc1ncnc2c(CN3C[C@H](C4CCCC4)[C@@H](O)C3)c[nH]c12` (racemic) yielded a Ki of 2.6 nM. `CC[C@H]1CN(Cc2c[nH]c3c(N)ncnc23)C[C@H]1O` (racemic) showed a Ki of 34 nM. `CC(C)C[C@H]1CN(Cc2c[nH]c3c(N)ncnc23)C[C@@H]1O` (racemic) gave a Ki of 1.7 nM. `C=CC[C@H]1CN(Cc2c[nH]c3c(N)ncnc23)C[C@@H]1O` (racemic) showed a Ki of 3 nM. Compound `Nc1ncnc2c(CN3C[C@H](C4CC4)[C@@H](O)C3)c[nH]c12` (racemic) has a Ki of 2.1 nM. `Nc1ncnc2c(CN3C[C@H](CCCSCc4ccccc4)[C@@H](O)C3)c[nH]c12` (racemic) gave a Ki of 71 nM. For `Nc1ncnc2c(CN3C[C@H](O)[C@@H](n4ccnn4)C3)c[nH]c12` (racemic), the Ki was 59 nM. In the case of `C=C[C@H]1CN(Cc2c[nH]c3c(N)ncnc23)C[C@@H]1O` (racemic), the Ki is reported as 3.2 nM. With `CC[C@H]1CN(Cc2c[nH]c3c(N)ncnc23)C[C@@H]1O` the Ki was 0.7 nM. In the case of `Nc1ncnc2c(CN3C[C@H](c4ccccc4)[C@@H](O)C3)c[nH]c12` (racemic), the Ki is reported as 8 nM. For `C#C[C@H]1CN(Cc2c[nH]c3c(N)ncnc23)C[C@@H]1O` (racemic), the Ki was 31 nM.
